As usually defined, the IC50 is the midpoint of a concentration-inhibition curve. As usually defined, the LD50 is the dose at which mortality reaches 50%. A higher LD50 goes with a less toxic substance.

In brackets after ≈: the same amount, converted by molar mass. Where two headings read alike, the source gives them in different places.

The values that follow come from patent US4791130A, “Mitomycin derivatives as antileukemia agents” (priority 1986, dated 1988).

Data set [1] can be described thus: in vivo. To be noted: mouse, ip. The source says: (§1) In this table, C.I. denotes chemotherapeutic index, calculated as (LD50)/(ED50), wherein LD50 denotes the value of acute toxity, and ED50 denotes the dose of a sample which is capable of reducing the volume of Sarcoma 180 solid tumour to 50% of the corresponding volume of the solid tumour of untreated group.
(§2) 5×10^6 cells of Sarcoma 180 solid tumour were abdominally implanted into a ddy mouse. After 7 days, the cells were collected from the acsites fluid. The cells were washed once with physiological saline under sterile conditions and suspended in physiological saline to obtain a cell suspension containing 5×10^7 cells/ml, of which 0.1 ml was implanted into a ddy mouse (body weight 20±2 g) under the skin of the right armpit. The test compound was dissolved in physiological saline or the same solution containing Tween 80. 24 hours after implantation of the tumour cells, 0.1-0.2 ml of the solution containing the test compound was administered to the vein at the tail of each animal of the test group consisting of 5 animals. 7 days after the implantation, the major axis (a) and minor axis (b) of the tumour were measured to calculate the volume of the tumour as "a"×"b^2 "/2. The antitumour effect was indicated by T/C which is the ratio of the tumour volume in the test animals to the corresponding volume of the control (untreated) animals.
(§3) T/C ratios and the dose were respectively plotted on the ordinate using an arithmetic scale and on the abscissa using a logarithmic scale, the relationship between the dosage and the T/C ratio being converted to a straight line by the least squares method. From the straight tropic line thus-obtained, the dose corresponding to a T/C=0.5 viz. ED50 was determined.
Sarcoma 180 solid tumour cells (5×10^6) were subcutaneously implanted into the skin under the right armpit of each mouse (body weight 20±2 g) of a group consisting of 5 male mice (ddy strain). 24 hours later, a test compound was intraperitoneally administered to each animal. 4 days later, blood (0.02 ml) was collected from the suborbital plexus vein of each tumour-carrying animal. The collected sample of blood was dispersed in 9.98 ml of Cell-kit Seven solution. One drop of saponin solution was added to the sample to dissolve erythrocytes and then a microcell counter was used to measure the number of leucocytes. On graph paper, the number of leucocytes was plotted on the ordinate using an arithmetic scale, and the dosage was plotted on the abscissa using a logarithmic scale to plot the relationship of the dosage to the number of peripheral leucocytes, from which the value of WBC4000, viz. a value capable of giving 4000 peripheral leucocytes (about half of the corresponding value in normal mice) per mm^3, was obtained.

For data set [2], the system named is Hela S3 cultured cells. Nature of the data set: Effects upon Hela S3 cultured cells (cell count after 72 hours). It counts as cell-based. To be noted: Homo sapiens. Here is the method: Table 3 indicates the effects of typical Compounds (I) against Hela S3 culture cells In this Table, IC50 denotes the concentration of the test compound capable of reducing the number of the cells to 50% of the number of untreated cells.
The experiment was carried out in the following manner:
Cultured cells of Hela S3 were added to a MEM medium containing 10% (V/V) of bovine fetal serum and […] of glutamine to obtain a cell suspension of 3×10^4 cells/ml. The cell suspension was poured into each well (1 ml/well) of a multiplate having 24 wells for culturing at 37° C. in an incubator containing carbon dioxide (5%) and air (95%). After 24 hours, samples were dissolved or suspended in PBS, ethanol or dimethylsulfoxide were added to the medium at different concentrations,followed by culturing at 37° C. for 72 hours in the same incubator.
An aspirator was used to collect the medium from each well. The surface of each medium was washed by added PBS (1 ml) gently, and then PBS was sucked out. PBS containing trypsin (0.05%) and EDTA (0.02%) was poured into each well. After pipetting, the number of the cells in each suspension was counted by the use of a micro-cell counter (commercial product of Toa Iyo Denshi K.K., Japan). By reference to a curve showing the concentration vs. the number of the cells, IC50 (concentration of the sample capable of reducing the number of the cells to 50% on the basis of the number of control untreated cells) was measured.

Data set [3] has as its system Sarcoma 180 solid tumour. It counts as in vivo, ddy mouse. To be noted: ddy mice, LD50 abdominal, ED50 single tail vein dose, tumour volume 7 days after implantation.
Excerpt: as §1
(§4) The test compound was abdominally administered once to ddy mice, each group consisting of 5 animals.
as §2, §3

A short description of data set [4]: in vivo. To be noted: mouse, ip, ddy mice, single abdominal administration, 14 days observation, Behrens-Korber's method.
Excerpt: as §4

For `CO[C@@]12[C@H](COC(N)=O)C3=C(C(=O)C(C)C(=NOCC(C)C)C3=O)N1C[C@@H]1N[C@@H]12` (stereo partly drawn) [Example 2, [1aS-(1aα, 8β, 8aα, 8bα)]-8-{[(aminocarbonyl)oxy]methyl}-6-[(isobutyloxy)imino]-8a-methoxy-5-methyl1,1a,2,5,6,8,8a,8b-octahydro-azirino[2',3':3,4]pyrrolo[1,2-a]indole-4,7-dione], in data set [1], the selectivity ratio came out at 1.9. This compound had a concentration for half-maximal inhibition (IC50) in data set [2] (HeLa S3, 72 h) of 3 ng/mL (≈ 0.00738 µM). For the same compound, in data set [3], the “C.I. (chemotherapeutic index, LD50/ED50)” value came out at 3.6. Further, the median lethal dose (LD50) at 336 h in data set [4] was 18.8 mg/kg.

`CO[C@@]12[C@H](COC(N)=O)C3=C(C(=O)C(C)=C(N)C3=O)N1C[C@@H]1N[C@@H]12` [Mitomycin C, reference compound]: the concentration for half-maximal inhibition (IC50) in data set [2] (Hela S3 cells, 72 hours at 37° C., concentration reducing cell number to 50% of untreated, read-out: IC50) was 4 ng/mL (≈ 0.012 µM).

As for `CC(C)CON=C1C(=O)C2=C(C(=O)C1C)N1C[C@H]3[C@H](N3C)[C@]1(O)[C@H]2COC(N)=O` (stereo partly shown) [Example 6], 30 ng/mL (≈ 0.0738 µM) corresponded to half-maximal inhibition in data set [2] (HeLa S3, 72 h) (IC50).

Consider `CO[C@@]12[C@H](CO)C3=C(C(=O)C(C)C(=NOCC(C)C)C3=O)N1C[C@@H]1N[C@@H]12` (stereo partly drawn) [Example 7, [1aS-(1aα, 8β, 8aα, 8bα)]-8-hydroxymethyl-6-[(isobutyloxy)imino] -8a-methoxy-5-methyl-1,1a, 2,5,6,8,8a,8b-octahydro-azirino [2',3':3,4]pyrrolo[1,2-a] indole-4,7-dione], for which 3 ng/mL (≈ 0.00826 µM) corresponded to half-maximal inhibition in data set [2] (HeLa S3, 72 h) (IC50).

Regarding `CCC(C)ON=C1C(=O)C2=C(C(=O)C1C)N1C[C@@H]3N[C@@H]3[C@]1(OC)[C@@H]2COC(N)=O` (stereo partly shown) [Example 3], in data set [1], the selectivity ratio came out at 2.4. In addition, in data set [2] (HeLa S3, 72 h), the concentration for half-maximal inhibition (IC50) was 1 ng/mL (≈ 0.00246 µM). Also, the “C.I. (chemotherapeutic index, LD50/ED50)” value in data set [3] came to 3.1. In data set [4], this compound gave an LD50 at 336 h of 18.8 mg/kg.

As for `CO[C@@]12[C@H](COC(N)=O)C3=C(C(=O)C(C)C(=NOCC(C)C)C3=O)N1C[C@H]1[C@@H]2N1C` (stereo partly drawn) [Example 5, [1aS-(1aα, 8β, 8aα, 8bα)]-8-{[(aminocarbonyl)oxy]methyl}-1,5-dimethyl-6-[(isobutyloxy)imino]8a-methoxy-1,1a,2,5,6,8,8a,8b-octahydro-azirino [2',3': 3,4]pyrrolo[1,2-a]indole-4,7-dione], the selectivity ratio in data set [1] was 1.4. The “C.I. (chemotherapeutic index, LD50/ED50)” value in data set [3] is listed as 3.4. The compound also registered a 50% lethal dose (LD50) at 336 h in data set [4] of 60 mg/kg.

In the case of `CCCCON=C1C(=O)C2=C(C(=O)C1C)N1C[C@@H]3N[C@@H]3[C@]1(OC)[C@@H]2COC(N)=O` (stereo partly shown) [Example 4], the selectivity ratio in data set [1] amounted to 0.9. The compound further came in with an IC50 in data set [2] (HeLa S3, 72 h) of 6 ng/mL (≈ 0.0148 µM). The “C.I. (chemotherapeutic index, LD50/ED50)” value in data set [3] was 2.7. In data set [4], the LD50 at 336 h was found to be 18.8 mg/kg.

As for `CON=C1C(=O)C2=C(C(=O)C1C)N1C[C@@H]3N[C@@H]3[C@]1(OC)[C@@H]2COC(N)=O` (stereo partly drawn) [Example 1, [1aS-(1aα,8β,8aα,8bα)]-8-{[(aminocarbonyl)oxy]methyl}-8a-methoxy-6-[(methoxy)imino]-5-methyl-1,1a,2,5,6,8,8a,8b-octahydro-azirino-[2',3':3,4]pyrrolo[1,2-a]indole-4,7-dione], the selectivity ratio in data set [1] came out at 0.5. Moreover, in data set [2] (HeLa S3, 72 h), the 50% inhibitory concentration (IC50) came out at 12 ng/mL (≈ 0.0329 µM). Besides, the “C.I. (chemotherapeutic index, LD50/ED50)” value in data set [3] was 0.7. The compound also displayed an LD50 at 336 h in data set [4] of 37.5 mg/kg.
